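Grown in 96-well plates, cells were treated for 48 hours with each compound at five concentrations. Insufficient inhibition: endpoint recorded as highest concentration tested. Definition used: TGI = concentration required for complete inhibition of growth.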
What was measured:
Assay in all cases: DTP human tumour cell line panel, 48 h
M14 melanoma = tested on: M14 melanoma
HT29 colon = tested on: HT29 colon
UACC-257 melanoma = tested on: UACC-257 melanoma
OVCAR-5 ovarian = tested on: OVCAR-5 ovarian
OVCAR-8 ovarian = tested on: OVCAR-8 ovarian
SF-539 CNS = tested on: SF-539 CNS
MDA-N = tested on: MDA-N
SNB-75 CNS = tested on: SNB-75 CNS
HOP-92 NSCLC = tested on: HOP-92 NSCLC
SK-MEL-28 melanoma = tested on: SK-MEL-28 melanoma
SNB-19 CNS = tested on: SNB-19 CNS
OVCAR-3 ovarian = tested on: OVCAR-3 ovarian
OVCAR-4 ovarian = tested on: OVCAR-4 ovarian
CCRF-CEM leukemia = tested on: CCRF-CEM leukemia
NCI-H522 lung = tested on: NCI-H522 lung
MOLT-4 leukemia = tested on: MOLT-4 leukemia
A549 NSCLC = tested on: A549 NSCLC
HCT-116 colon = tested on: HCT-116 colon
SK-MEL-2 melanoma = tested on: SK-MEL-2 melanoma
SK-MEL-5 melanoma = tested on: SK-MEL-5 melanoma
UACC-62 melanoma = tested on: UACC-62 melanoma
786-0 renal = tested on: 786-0 renal
HS 578T breast = tested on: HS 578T breast
RPMI-8226 leukemia = tested on: RPMI-8226 leukemia
A498 renal = tested on: A498 renal
DU-145 prostate = tested on: DU-145 prostate
RXF 393 renal = tested on: RXF 393 renal
ACHN renal = tested on: ACHN renal
COLO 205 colon = tested on: COLO 205 colon
T-47D breast = tested on: T-47D breast
UO-31 renal = tested on: UO-31 renal
MDA-MB-231 breast = tested on: MDA-MB-231 breast
TK-10 renal = tested on: TK-10 renal
NCI-H23 lung = tested on: NCI-H23 lung
MALME-3M melanoma = tested on: MALME-3M melanoma
IGROV1 ovarian = tested on: IGROV1 ovarian
SK-OV-3 ovarian = tested on: SK-OV-3 ovarian
SF-295 CNS = tested on: SF-295 CNS
SN12C renal = tested on: SN12C renal
NCI-H226 lung = tested on: NCI-H226 lung
K-562 leukemia = tested on: K-562 leukemia
HCT-15 colon = tested on: HCT-15 colon
MDA-MB-435 = tested on: MDA-MB-435
PC-3 prostate = tested on: PC-3 prostate
SF-268 CNS = tested on: SF-268 CNS
BT-549 breast = tested on: BT-549 breast
NCI/ADR-RES ovarian = tested on: NCI/ADR-RES ovarian
EKVX NSCLC = tested on: EKVX NSCLC
HOP-62 NSCLC = tested on: HOP-62 NSCLC
HL-60(TB) leukemia = tested on: HL-60(TB) leukemia
MCF7 breast = tested on: MCF7 breast
LOX IMVI melanoma = tested on: LOX IMVI melanoma
SR leukemia = tested on: SR leukemia
U251 CNS = tested on: U251 CNS
SW-620 colon = tested on: SW-620 colon
NCI-H460 lung = tested on: NCI-H460 lung
HCC-2998 colon = tested on: HCC-2998 colon
KM12 colon = tested on: KM12 colon

Question: With `CN(C)C=Nc1ccc2c3c(cccc13)-c1ccccc1-2` as the compound, how does the TGI (M14 melanoma) read?
Answer: 22.1 µM

Question: And the TGI (HT29 colon)?
Answer: 21.6 µM

Question: And the TGI (UACC-257 melanoma)?
Answer: 31.9 µM

Question: What about the TGI (OVCAR-5 ovarian) of the same compound?
Answer: 23.1 µM

Question: And the TGI (OVCAR-8 ovarian)?
Answer: 29.8 µM

Question: And the TGI (SF-539 CNS)?
Answer: 24.5 µM

Question: What about the TGI (MDA-N) of the same compound?
Answer: 27.6 µM

Question: And the TGI (SNB-75 CNS)?
Answer: 28.9 µM

Question: What about the TGI (HOP-92 NSCLC) of the same compound?
Answer: 24.9 µM

Question: What about the TGI (SK-MEL-28 melanoma) of the same compound?
Answer: 31.9 µM

Question: What about the TGI (SNB-19 CNS) of the same compound?
Answer: 27.4 µM

Question: What about the TGI (OVCAR-3 ovarian) of the same compound?
Answer: 28.9 µM

Question: What about the TGI (OVCAR-4 ovarian) of the same compound?
Answer: 31.6 µM

Question: And the TGI (CCRF-CEM leukemia)?
Answer: 17.2 µM

Question: What about the TGI (NCI-H522 lung) of the same compound?
Answer: 18.8 µM

Question: What about the TGI (MOLT-4 leukemia) of the same compound?
Answer: 24.8 µM

Question: What about the TGI (A549 NSCLC) of the same compound?
Answer: 23.7 µM

Question: And the TGI (HCT-116 colon)?
Answer: 28.7 µM

Question: And the TGI (SK-MEL-2 melanoma)?
Answer: 31.1 µM

Question: What about the TGI (SK-MEL-5 melanoma) of the same compound?
Answer: 28.1 µM

Question: And the TGI (UACC-62 melanoma)?
Answer: 38.8 µM

Question: What about the TGI (786-0 renal) of the same compound?
Answer: 26 µM

Question: And the TGI (HS 578T breast)?
Answer: 24.9 µM

Question: And the TGI (RPMI-8226 leukemia)?
Answer: 38.9 µM

Question: What about the TGI (A498 renal) of the same compound?
Answer: 21.7 µM

Question: What about the TGI (DU-145 prostate) of the same compound?
Answer: 25.7 µM

Question: And the TGI (RXF 393 renal)?
Answer: 21 µM

Question: What about the TGI (ACHN renal) of the same compound?
Answer: 31.6 µM

Question: And the TGI (COLO 205 colon)?
Answer: 30.9 µM

Question: What about the TGI (T-47D breast) of the same compound?
Answer: 31.3 µM

Question: What about the TGI (UO-31 renal) of the same compound?
Answer: 19.6 µM

Question: What about the TGI (MDA-MB-231 breast) of the same compound?
Answer: 28.2 µM

Question: And the TGI (TK-10 renal)?
Answer: 26.7 µM

Question: What about the TGI (NCI-H23 lung) of the same compound?
Answer: 32.9 µM

Question: And the TGI (MALME-3M melanoma)?
Answer: 34.6 µM

Question: And the TGI (IGROV1 ovarian)?
Answer: 28.8 µM

Question: And the TGI (SK-OV-3 ovarian)?
Answer: 26.5 µM

Question: What about the TGI (SF-295 CNS) of the same compound?
Answer: 27.9 µM

Question: What about the TGI (SN12C renal) of the same compound?
Answer: 25.1 µM

Question: What about the TGI (NCI-H226 lung) of the same compound?
Answer: 22.8 µM

Question: What about the TGI (K-562 leukemia) of the same compound?
Answer: 22.1 µM

Question: What about the TGI (HCT-15 colon) of the same compound?
Answer: 24.1 µM

Question: And the TGI (MDA-MB-435)?
Answer: 28.3 µM

Question: And the TGI (PC-3 prostate)?
Answer: 26.3 µM

Question: And the TGI (SF-268 CNS)?
Answer: 26.8 µM

Question: And the TGI (BT-549 breast)?
Answer: 32 µM

Question: What about the TGI (NCI/ADR-RES ovarian) of the same compound?
Answer: 31.4 µM

Question: What about the TGI (EKVX NSCLC) of the same compound?
Answer: 22.4 µM

Question: And the TGI (HOP-62 NSCLC)?
Answer: 29.5 µM

Question: And the TGI (HL-60(TB) leukemia)?
Answer: 23.2 µM

Question: What about the TGI (MCF7 breast) of the same compound?
Answer: 30.7 µM

Question: And the TGI (LOX IMVI melanoma)?
Answer: 28.3 µM

Question: What about the TGI (SR leukemia) of the same compound?
Answer: 26.3 µM

Question: What about the TGI (U251 CNS) of the same compound?
Answer: 26.2 µM

Question: With `COC(=O)C1C(O)C(C)C(O)C(C)(O)C=C(C)C2=C3C(=C(C)C(=O)c4c(O)c(c(C)c(OC(C)=O)c43)NC(=O)C(C)=C/C=C\C(C)(O)C(O)C(C)C1O)OCO2` (configuration not stated) as the compound, how does the TGI (M14 melanoma) read?
Answer: > 100 µM

Question: What about the TGI (HT29 colon) of the same compound?
Answer: > 100 µM

Question: What about the TGI (UACC-257 melanoma) of the same compound?
Answer: 78 µM

Question: What about the TGI (OVCAR-5 ovarian) of the same compound?
Answer: > 100 µM

Question: What about the TGI (OVCAR-8 ovarian) of the same compound?
Answer: > 100 µM

Question: What about the TGI (SF-539 CNS) of the same compound?
Answer: > 100 µM

Question: And the TGI (MDA-N)?
Answer: > 100 µM

Question: And the TGI (SNB-75 CNS)?
Answer: > 100 µM

Question: What about the TGI (HOP-92 NSCLC) of the same compound?
Answer: > 100 µM

Question: And the TGI (SK-MEL-28 melanoma)?
Answer: > 100 µM

Question: And the TGI (SNB-19 CNS)?
Answer: > 100 µM

Question: What about the TGI (OVCAR-3 ovarian) of the same compound?
Answer: 57 µM

Question: What about the TGI (OVCAR-4 ovarian) of the same compound?
Answer: > 100 µM

Question: What about the TGI (CCRF-CEM leukemia) of the same compound?
Answer: > 100 µM

Question: And the TGI (NCI-H522 lung)?
Answer: > 100 µM

Question: What about the TGI (MOLT-4 leukemia) of the same compound?
Answer: > 100 µM

Question: What about the TGI (SW-620 colon) of the same compound?
Answer: > 100 µM

Question: And the TGI (A549 NSCLC)?
Answer: > 100 µM

Question: What about the TGI (HCT-116 colon) of the same compound?
Answer: > 100 µM

Question: What about the TGI (SK-MEL-2 melanoma) of the same compound?
Answer: > 100 µM

Question: And the TGI (SK-MEL-5 melanoma)?
Answer: 47.7 µM

Question: And the TGI (UACC-62 melanoma)?
Answer: > 100 µM

Question: And the TGI (786-0 renal)?
Answer: > 100 µM

Question: And the TGI (HS 578T breast)?
Answer: > 100 µM

Question: And the TGI (RPMI-8226 leukemia)?
Answer: > 100 µM

Question: And the TGI (A498 renal)?
Answer: > 100 µM

Question: What about the TGI (DU-145 prostate) of the same compound?
Answer: > 100 µM

Question: What about the TGI (RXF 393 renal) of the same compound?
Answer: > 100 µM

Question: And the TGI (ACHN renal)?
Answer: > 100 µM

Question: What about the TGI (COLO 205 colon) of the same compound?
Answer: 69.7 µM

Question: What about the TGI (T-47D breast) of the same compound?
Answer: > 100 µM

Question: And the TGI (UO-31 renal)?
Answer: > 100 µM

Question: What about the TGI (MDA-MB-231 breast) of the same compound?
Answer: > 100 µM

Question: What about the TGI (TK-10 renal) of the same compound?
Answer: > 100 µM

Question: What about the TGI (NCI-H23 lung) of the same compound?
Answer: > 100 µM

Question: What about the TGI (MALME-3M melanoma) of the same compound?
Answer: 74.2 µM

Question: And the TGI (IGROV1 ovarian)?
Answer: > 100 µM

Question: And the TGI (SK-OV-3 ovarian)?
Answer: > 100 µM

Question: And the TGI (SF-295 CNS)?
Answer: > 100 µM

Question: What about the TGI (SN12C renal) of the same compound?
Answer: > 100 µM

Question: And the TGI (NCI-H226 lung)?
Answer: > 100 µM

Question: And the TGI (K-562 leukemia)?
Answer: > 100 µM

Question: What about the TGI (HCT-15 colon) of the same compound?
Answer: > 100 µM

Question: What about the TGI (NCI-H460 lung) of the same compound?
Answer: > 100 µM

Question: And the TGI (MDA-MB-435)?
Answer: > 100 µM

Question: And the TGI (PC-3 prostate)?
Answer: > 100 µM

Question: And the TGI (SF-268 CNS)?
Answer: > 100 µM

Question: What about the TGI (BT-549 breast) of the same compound?
Answer: > 100 µM

Question: What about the TGI (NCI/ADR-RES ovarian) of the same compound?
Answer: > 100 µM

Question: What about the TGI (EKVX NSCLC) of the same compound?
Answer: > 100 µM

Question: And the TGI (HCC-2998 colon)?
Answer: > 100 µM

Question: And the TGI (KM12 colon)?
Answer: > 100 µM

Question: And the TGI (HOP-62 NSCLC)?
Answer: > 100 µM

Question: And the TGI (HL-60(TB) leukemia)?
Answer: > 100 µM

Question: What about the TGI (MCF7 breast) of the same compound?
Answer: > 100 µM

Question: And the TGI (LOX IMVI melanoma)?
Answer: > 100 µM

Question: And the TGI (SR leukemia)?
Answer: > 100 µM

Question: What about the TGI (U251 CNS) of the same compound?
Answer: > 100 µM
